Where a name gives a salt, the structure may show the parent alone.
Columns and labels:
EP1 receptors = target: T1, EP1 receptors (Homo sapiens, UniProt P34995); assay: Binding assay for the human prostanoid EP1 receptor (competition with [3H]-PGE2); set-up: expressed in transfected cells; host or cells: CHO-K1 (membrane fraction); settings: averages of a number of experiments; Example 3 as sodium salt; read-out: pIC50 value in the binding assay for the human prostanoid EP1 receptor (converted)
T1 sequence (P34995 1-402): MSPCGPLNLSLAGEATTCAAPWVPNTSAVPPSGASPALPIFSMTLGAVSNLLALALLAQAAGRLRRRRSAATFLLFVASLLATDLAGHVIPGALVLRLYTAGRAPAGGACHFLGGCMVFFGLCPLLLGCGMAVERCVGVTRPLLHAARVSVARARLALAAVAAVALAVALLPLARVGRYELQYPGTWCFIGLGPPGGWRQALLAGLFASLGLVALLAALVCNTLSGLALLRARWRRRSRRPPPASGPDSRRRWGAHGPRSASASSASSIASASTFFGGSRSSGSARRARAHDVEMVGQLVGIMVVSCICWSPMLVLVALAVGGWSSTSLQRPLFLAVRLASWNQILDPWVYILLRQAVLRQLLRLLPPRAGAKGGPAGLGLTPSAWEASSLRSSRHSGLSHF
Protocol: Binding Assay for the Human Prostanoid EP1 Receptor
Competition assay using [^3H]-PGE2.
Compound potencies are determined using a radioligand binding assay. In this assay compound potencies are determined from their ability to compete with tritiated prostaglandin E2 ([^3H]-PGE2) for binding to the human EP1 receptor.
This assay utilises Chinese hamster ovary-K1 (CHO-K1) cells into which a stable vector containing the EP1 cDNA has previously been transfected. Cells are cultured in suitable flasks containing culture medium such as DMEM:F-12 supplemented with 10% v/v foetal calf serum, 2 mM L-glutamine, 0.25 mg/ml geneticin, 10 μg/ml puromycin and 10 μM indomethacin.
Cells are detached from the culture flasks by incubation in calcium and magnesium free phosphate buffered saline containing 1 mM disodium ethylenediaminetetraacetic acid (Na2EDTA) and 10 μM indomethacin for 5 min. The cells are isolated by centrifugation at 250×g for 5 mins and suspended in an ice cold buffer such as 50 mM Tris, 1 mM Na2EDTA, 140 mM NaCl, 10 μM indomethacin (pH 7.4). The cells are homogenised using a Polytron tissue disrupter (2×10s burst at full setting), centrifuged at 48,000×g for 20 mins and the pellet containing the membrane fraction is washed (optional) three times by suspension and centrifugation at 48,000×g for 20 mins. The final membrane pellet is suspended in an assay buffer such as 10 mM 2-[N-morpholino]ethanesulphonic acid, 1 mM Na2EDTA, 10 mM MgCl2 (pH 6). Aliquots are frozen at −80° C. until required.
For the binding assay the cell membranes, competing compounds and [^3H]-PGE2 (3 nM final assay concentration) are incubated in a final volume of 100 μl for 30 min at 30° C. All reagents are prepared in assay buffer. Reactions are terminated by rapid vacuum filtration over GF/B filters using a Brandell cell harvester. The filters are washed with ice cold assay buffer, dried and the radioactivity retained on the filters is measured by liquid scintillation counting in Packard TopCount scintillation counter.
The data are analysed using non linear curve fitting techniques to determine the concentration of compound producing 50% inhibition of specific binding (IC50).

EP3 receptors = target: T2, EP3 receptors (Homo sapiens, UniProt P43115); assay: human EP3 calcium mobilisation assay (CHO-K1 cells, PGE2, FLIPR); format: cell-based; settings: free bases or sodium salts; averages of a number of experiments; read-out: functional pKi value, human EP3 calcium mobilisation assay (converted)
T2 construct: expressed in transfected cells; host or cells: CHO-K1
T2 sequence (P43115 1-390): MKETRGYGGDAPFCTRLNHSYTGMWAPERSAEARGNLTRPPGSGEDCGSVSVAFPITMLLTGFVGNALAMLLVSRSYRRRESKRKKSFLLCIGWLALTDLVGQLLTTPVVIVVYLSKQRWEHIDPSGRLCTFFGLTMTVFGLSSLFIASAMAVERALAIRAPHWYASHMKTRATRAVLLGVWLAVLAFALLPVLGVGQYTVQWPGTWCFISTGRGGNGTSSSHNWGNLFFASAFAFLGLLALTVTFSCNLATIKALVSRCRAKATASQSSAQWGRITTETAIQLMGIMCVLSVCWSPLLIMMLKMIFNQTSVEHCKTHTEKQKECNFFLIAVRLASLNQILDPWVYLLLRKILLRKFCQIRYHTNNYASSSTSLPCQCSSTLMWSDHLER
Protocol: Briefly, the antagonist properties of compounds are assessed by their ability to inhibit the mobilisation of intracellular calcium ([Ca^2+]i) in response to activation of EP1 or EP3 receptors by the natural agonist hormone prostaglandin E2 (PGE2). Increasing concentrations of antagonist reduce the amount of calcium that a given concentration of PGE2 can mobilise. The net effect is to displace the PGE2 concentration-effect curve to higher concentrations of PGE2. The amount of calcium produced is assessed using a calcium-sensitive fluorescent dye such as Fluo-4, AM and a suitable instrument such as a Fluorimetric Imaging Plate Reader (FLIPR). Increasing amounts of [Ca^2+]i produced by receptor activation increase the amount of fluorescence produced by the dye and give rise to an increasing signal. The signal may be detected using the FLIPR instrument and the data generated may be analysed with suitable curve-fitting software.
The human EP1 or EP3 calcium mobilisation assay (hereafter referred to as ‘the calcium assay’) utilises Chinese hamster ovary-K1 (CHO-K1) cells into which a stable (pCIN; BioTechniques 20 (1996): 102-110) vector containing either EP1 or EP3 cDNA has previously been transfected. Cells are cultured in suitable flasks containing culture medium such as DMEM:F-12 supplemented with 10% v/v foetal calf serum, 2 mM L-glutamine, 0.25 mg/ml geneticin, 100 μM flurbiprofen and 10 µg/ml puromycin.
For assay, cells are harvested using a proprietary reagent that dislodges cells such as Versene. Cells are re-suspended in a suitable quantity of fresh culture media for introduction into a 384-well plate. Following incubation for 24 hours at 37° C. the culture media is replaced with a medium containing Fluo-4 and the detergent pluronic acid, and a further incubation takes place. Concentrations of compounds are then added to the plate in order to construct concentration-effect curves. This may be performed on the FLIPR in order to assess the agonist properties of the compounds. Concentrations of PGE2 are then added to the plate in order to assess the antagonist properties of the compounds.
The data so generated may be analysed by means of a computerised curve-fitting routine. The concentration of compound that elicits a half-maximal inhibition of the calcium mobilisation induced by PGE2 (pIC50) may then be estimated.

| SMILES | IC50 (EP1 receptors) | Ki (EP3 receptors) |
| --- | --- | --- |
| CCCS(=O)(=O)NC(=O)c1cccc(Cc2cc(Cl)ccc2OCc2ccc(Cl)cc2F)n1 [Example 30, 6-[(5-Chloro-2-{[(4-chloro-2-fluorophenyl)methyl]oxy}-phenyl)methyl]-N-(propylsulphonyl)-2-pyridinecarboxamide] | ≤ 31.6 nM | > 10000 nM |
| O=C(O)c1cccc(Cc2cc(Cl)ccc2OCc2ccc(Cl)cc2Cl)n1 [Example 12, Sodium 6-[(5-chloro-2-{[(2,4-dichlororophenyl)methyl]oxy}phenyl)methyl]-2-pyridinecarboxylate] | ≤ 31.6 nM | – |
| O=C(NS(=O)(=O)c1ccccc1)c1cccc(Cc2cc(Cl)ccc2OCc2ccc(Cl)cc2F)n1 [Example 28, 6-[(5-chloro-2-{[(4-chloro-2-fluorophenyl)methyl]oxy}phenyl)-methyl]-N-(phenylsulphonyl)-2-pyridinecarboxamide] | ≤ 31.6 nM | > 10000 nM |
| O=C(O)c1cccc(Cc2cc(Cl)ccc2OCc2ccc(F)cc2Cl)n1 [Example 11, Sodium 6-[(5-chloro-2-{[(2-chloro-4-fluorophenyl)methyl]oxy}phenyl)methyl]-2-pyridinecarboxylate] | ≤ 31.6 nM | > 10000 nM |
| O=C(O)c1cccc(Cc2cc(Cl)ccc2OCc2cc(F)c(F)cc2F)n1 [Example 10, Sodium 6-[(5-chloro-2-{[(2,4,5-trifluorophenyl)methyl]oxy}phenyl)methyl]-2-pyridinecarboxylate] | ≤ 31.6 nM | > 10000 nM |
| O=C(O)c1cccc(Cc2cc(Cl)ccc2OCc2ccc(F)cc2F)n1 [Example 4, Sodium 6-[(5-chloro-2-{[(2,4-difluorophenyl)methyl]oxy}phenyl)methyl]-2-pyridinecarboxylate] | ≤ 31.6 nM | > 10000 nM |
| CS(=O)(=O)NC(=O)c1cccc(Cc2cc(Cl)ccc2OCc2ccc(Cl)cc2F)n1 [Example 29, 6-[(5-Chloro-2-{[(4-chloro-2-fluorophenyl)methyl]oxy}-phenyl)methyl]-N-(methylsulphonyl)-2-pyridinecarboxamide] | ≤ 31.6 nM | > 10000 nM |
| O=C(O)c1cccc(Cc2cc(Cl)ccc2OCc2ccc(Cl)cc2F)n1 [Example 3, Sodium 6-[(5-chloro-2-{[(4-chloro-2-fluorophenyl)methyl]oxy}phenyl)methyl]-2-pyridinecarboxylate] | ≤ 31.6 nM | – |
| O=C(O)c1cccc(Cc2cc(Cl)ccc2OCC2CCCC2)n1 [Example 14, Sodium 6-({5-chloro-2-[(cyclopentylmethyl)oxy]phenyl}methyl)-2-pyridinecarboxylate] | ≤ 31.6 nM | – |

The next lines start with the values.

| IC50 (EP1 receptors) | Ki (EP3 receptors) | SMILES |
| --- | --- | --- |
| ≤ 31.6 nM | – | O=C(NS(=O)(=O)c1ccc(Br)cc1)c1cccc(Cc2cc(Cl)ccc2OCc2ccc(Cl)cc2F)n1 [Example 33, N-[(4-Bromophenyl)sulphonyl]-6-[(5-chloro-2-{[(4-chloro-2-fluorophenyl)methyl]oxy}phenyl)-methyl]-2-pyridinecarboxamide] |
| ≤ 31.6 nM | – | O=C(NS(=O)(=O)c1cccc(Br)c1)c1cccc(Cc2cc(Cl)ccc2OCc2ccc(Cl)cc2F)n1 [Example 34, N-[(3-Bromophenyl)sulphonyl]-6-[(5-chloro-2-{[(4-chloro-2-fluorophenyl)methyl]oxy}phenyl)-methyl]-2-pyridinecarboxamide] |
| ≤ 31.6 nM | > 10000 nM | Cc1noc(C)c1S(=O)(=O)NC(=O)c1cccc(Cc2cc(Cl)ccc2OCc2ccc(Cl)cc2F)n1 [Example 36, 6-[(5-Chloro-2-{[(4-chloro-2-fluorophenyl)methyl]oxy}-phenyl)methyl]-N-[(3,5-dimethyl-4-isoxazolyl)sulphonyl]-2-pyridinecarboxamide] |
| ≤ 31.6 nM | – | Fc1cc(Cl)ccc1COc1ccc(Cl)cc1Cc1cccc(-c2nnn[nH]2)n1 [Example 38, 2-[(5-Chloro-2-{[(4-chloro-2-fluorophenyl)methyl]oxy}phenyl)-methyl]-6-(1H-tetrazol-5-yl)pyridine] |
| ≤ 31.6 nM | – | Cc1ccc(C(=O)O)nc1Cc1cc(Cl)ccc1OCc1ccc(Cl)cc1F [Example 39, 6-[(5-Chloro-2-{[(4-chloro-2-fluorophenyl)methyl]oxy}-phenyl)methyl]-5-methyl-2-pyridinecarboxylic acid, sodium salt] |
